Source: US7442796B2, “Compounds for the treatment of metabolic disorders” (Wellstat Therapeutics Corporation, priority 2003, dated 2008)

Test system: db/db mice
Experiment: Antidiabetic effects in db/db mice (serum glucose and triglycerides after daily oral dosing)
Assay type: in vivo
Settings: male db/db mice, 17 days
Excerpt: C57BL/Ksola (db/db) mice have a defect in leptin signaling, leading to hyperphagia, obesity and diabetes. Moreover, unlike ob/ob mice on a C57BL/6J background, db/db mice on a C57BLKS background undergo failure of their insulin-producing pancreatic islet cells, resulting in progression from hyperinsulinemia (associated with peripheral insulin resistance) to hypoinsulinemic diabetes.
Male obese (db/db homozygote) C57BL/Ksola mice approximately 8 weeks of age, were obtained from Jackson Labs (Bar Harbor, Me.) and sorted into groups of 7 animals each animals such that the body weights (40-45 g) and serum glucose levels (≧300 mg/dl in fed state) were similar between groups. A minimum of 7 days was allowed for adaptation after arrival. All animals were maintained under controlled temperature (23° C.), relative humidity (50±5%) and light (7:00-19:00), and allowed free access to standard chow (Formulab Diet 5008, Quality Lab Products, Elkridge, Md.) and water.
Treatment cohorts were given daily oral doses of vehicle (1% hydroxypropylmethylcellulose), Compounds BI, CF, CG, CQ or phenylacetate for 17 days. At the end of the treatment period, blood samples were collected and serum glucose and triglycerides were measured.

| SMILES | Glucose mg/dL (±SEM) (300 mg/kg daily oral) [mg/dL] | Triglycerides (300 mg/kg daily oral) [mg/dL] | Glucose mg/dL (±SEM) (60 mg/kg daily oral) [mg/dL] | Triglycerides (60 mg/kg daily oral) [mg/dL] | Glucose mg/dL (±SEM) (100 mg/kg daily oral) [mg/dL] | Triglycerides (100 mg/kg daily oral) [mg/dL] |
| --- | --- | --- | --- | --- | --- | --- |
| O=C(O)Cc1ccccc1 [Phenylacetate, reference compound] | 661 ± 64 | 171 ± 33 |  |  |  |  |
| Cc1cccc(C)c1COc1cccc(C(=O)C(=O)O)c1 [CQ, [3-(2,6-Dimethylbenzyloxy)-phenyl]-oxoacetic acid] |  |  | 691 ± 37 | 175 ± 25 | 786 ± 65 | 125 ± 10 |
